From patent publication US10736883B2, “Triazole furan compounds as agonists of the APJ receptor” (AMGEN INC., priority 2016, dated 2020)

The compounds below were run against APJ receptor (Homo sapiens (Human), UniProt P35414) (assay: [35S]GTPγS binding assay on membranes from CHO cells stably expressing human APJ receptor). Conditions: membranes of CHO cells stably expressing human APJ receptor, means of several independent experiments, read-out: Activity hAPJ SPA EC50 IP.
Type: biochemical
How it was run: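 EC50 values were obtained by non-linear regression of [35S]GTPγS (0.2 nM) binding after 90 min at RT, with nonspecific binding defined by 100 μM GTPγS. Reactions used human APJ–expressing CHO cell membranes on WGA PS beads in HEPES pH 7.5 buffer with 5 mM MgCl2, 200 mM NaCl, 3 μM GDP and 0.1% BSA.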

APJ receptor, sequence (P35414 whole entry): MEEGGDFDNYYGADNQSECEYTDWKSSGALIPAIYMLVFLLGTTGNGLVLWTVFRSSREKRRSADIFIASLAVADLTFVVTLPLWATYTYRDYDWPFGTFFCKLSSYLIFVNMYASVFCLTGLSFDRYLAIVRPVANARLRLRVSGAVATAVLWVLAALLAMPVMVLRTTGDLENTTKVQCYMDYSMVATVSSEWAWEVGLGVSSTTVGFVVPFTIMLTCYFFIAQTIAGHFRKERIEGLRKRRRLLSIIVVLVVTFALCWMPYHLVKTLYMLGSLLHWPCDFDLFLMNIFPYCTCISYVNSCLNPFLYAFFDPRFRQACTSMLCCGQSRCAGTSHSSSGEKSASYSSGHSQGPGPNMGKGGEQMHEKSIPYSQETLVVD

Going from COc1cccc(OC)c1-n1c(NS(=O)(=O)[C@@H](C)C2(O)COC2)nnc1-c1ccc(C)o1 (single isomer, unassigned) [Example 311.0, (1S)—N-(4-(2,6-Dimethoxyphenyl)-5-(5-methyl-2-furanyl)-4H-1,2,4-triazol-3-yl)-1-(3-hydroxy-3-oxetanyl)ethanesulfonamide or (1R)—N-(4-(2,6-dimethoxyphenyl)-5-(5-methyl-2-furanyl)-4H-1,2,4-triazol-3-yl)-1-(3-hydroxy-3-oxetanyl)ethanesulfonamide] to COc1cccc(OC)c1-n1c(NS(=O)(=O)[C@@H]2COCC[C@@H]2O)nnc1-c1ccc(C)o1 (single isomer, unassigned) [Example 402.0], the EC50 falls from 190 nM to 65 nM (2.9-fold).

First: COc1cccc(OC)c1-n1c(NS(=O)(=O)[C@H](C)[C@@H](C)c2ncc(F)cn2)nnc1-c1ccc(C)o1 [Example 109.0]
Second: COc1cccc(OC)c1-n1c(NS(=O)(=O)[C@@H](C)[C@H](OC)c2ncc(F)cn2)nnc1-c1ccc(C)o1 (single isomer, unassigned) [Example 116.0, (1R,2S)-N-(4-(2,6-dimethoxyphenyl)-5-(5-methylfuran-2-yl)-4H-1,2,4-triazol-3-yl)-1-(5-fluoropyrimidin-2-yl)-1-methoxypropane-2-sulfonamide or (1S,2R)-N-(4-(2,6-dimethoxyphenyl)-5-(5-methylfuran-2-yl)-4H-1,2,4-triazol-3-yl)-1-(5-fluoropyrimidin-2-yl)-1-methoxypropane-2-sulfonamide]
The EC50 of the first is 16-fold higher: 0.87 nM for the first, 0.056 nM for the second.

First: COc1cccc(OC)c1-n1c(NS(=O)(=O)[C@H](C)Cc2ccc(F)cn2)nnc1-c1ccco1 (single isomer, unassigned) [Example 25.0, (2R)—N-(4-(2,6-dimethoxyphenyl)-5-(2-furanyl)-4H-1,2,4-triazol-3-yl)-1-(5-fluoro-2-pyridinyl)-2-propanesulfonamide or (2S)—N-(4-(2,6-dimethoxyphenyl)-5-(2-furanyl)-4H-1,2,4-triazol-3-yl)-1-(5-fluoro-2-pyridinyl)-2-propanesulfonamide]
Second: COc1cccc(OC)c1-n1c(NS(=O)(=O)[C@H](C)Cc2ccc(Cl)cn2)nnc1-c1ccco1 (single isomer, unassigned) [Example 11.0, (2R)-1-(5-chloro-2-pyridinyl)-N-(4-(2,6-dimethoxyphenyl)-5-(2-furanyl)-4H-1,2,4-triazol-3-yl)-2-propanesulfonamide or (2S)-1-(5-chloro-2-pyridinyl)-N-(4-(2,6-dimethoxyphenyl)-5-(2-furanyl)-4H-1,2,4-triazol-3-yl)-2-propanesulfonamide]
The EC50 of the first is 2.6-fold higher: 0.37 nM for the first, 0.14 nM for the second. The second is the more potent here.

Compared with CCO[C@@H](c1ncc(C)cn1)[C@H](C)S(=O)(=O)Nc1nnc(-c2ccc(C)o2)n1-c1c(OC)cccc1OC (single isomer, unassigned) [Example 117.0, (1S,2S)-N-(4-(2,6-dimethoxyphenyl)-5-(5-methylfuran-2-yl)-4H-1,2,4-triazol-3-yl)-1-ethoxy-1-(5-methylpyrimidin-2-yl)propane-2-sulfonamide or (1R,2R)-N-(4-(2,6-dimethoxyphenyl)-5-(5-methylfuran-2-yl)-4H-1,2,4-triazol-3-yl)-1-ethoxy-1-(5-methylpyrimidin-2-yl)propane-2-sulfonamide], COc1cccc(OC)c1-n1c(NS(=O)(=O)[C@@H](C)[C@@H](O)c2ccc(F)cn2)nnc1-c1ccc(C)o1 (single isomer, unassigned) [Example 79.0] is 16-fold higher in EC50: 0.061 nM for the first, 0.98 nM for the second. The first is the more potent here.

COc1cccc(OC)c1-n1c(NS(=O)(=O)[C@H]2C[C@@H](O)CN(c3ccc(F)c(C#N)c3)C2)nnc1-c1ccc(C)o1 (racemic) [Example 329.0, (3S,5R)-1-(3-Cyano-4-fluorophenyl)-N-(4-(2,6-dimethoxyphenyl)-5-(5-methyl-2-furanyl)-4H-1,2,4-triazol-3-yl)-5-hydroxy-3-piperidinesulfonamide and (3R,5S)-1-(3-cyano-4-fluorophenyl)-N-(4-(2,6-dimethoxyphenyl)-5-(5-methyl-2-furanyl)-4H-1,2,4-triazol-3-yl)-5-hydroxy-3-piperidinesulfonamide] and COc1cccc(OC)c1-n1c(NS(=O)(=O)[C@H]2C[C@@H](O)CN(c3nc(C)cc(C)n3)C2)nnc1-c1ccc(C)o1 (single isomer, unassigned) [Example 336.0, (3S,5R)—N-(4-(2,6-Dimethoxyphenyl)-5-(5-methylfuran-2-yl)-4H-1,2,4-triazol-3-yl)-1-(4,6-dimethylpyrimidin-2-yl)-5-hydroxypiperidine-3-sulfonamide or (3R,5S)—N-(4-(2,6-dimethoxyphenyl)-5-(5-methylfuran-2-yl)-4H-1,2,4-triazol-3-yl)-1-(4,6-dimethylpyrimidin-2-yl)-5-hydroxypiperidine-3-sulfonamide] are within 1.5-fold of each other in EC50: 0.38 nM for the first, 0.55 nM for the second.

Compared with COc1ncnc(OC)c1-n1c(NS(=O)(=O)[C@@H](C)[C@H](C)c2ccc(Cl)cn2)nnc1-c1ccc(C)o1 [Example 400.0, (2S,3R)-3-(5-chloro-2-pyridinyl)-N-(4-(4,6-dimethoxy-5-pyrimidinyl)-5-(5-methyl-2-furanyl)-4H-1,2,4-triazol-3-yl)-2-butanesulfonamide], COc1cccc(OC)c1-n1c(NS(=O)(=O)[C@H](C)[C@H](O)c2cccc(Cl)n2)nnc1-c1ccc(C)o1 (stereo in doubt) [Example 85.0] is 1.7-fold higher in EC50: 0.1 nM for the first, 0.17 nM for the second. The first is the more potent here.

Compared with COc1cccc(OC)c1-n1c(NS(=O)(=O)[C@@H](C)[C@H](O)c2cccc3ccnn23)nnc1-c1ccc(C)o1 (single isomer, unassigned) [Example 296.0, (1R,2S)—N-(4-(2,6-Dimethoxyphenyl)-5-(5-methyl-2-furanyl)-4H-1,2,4-triazol-3-yl)-1-hydroxy-1-pyrazolo[1,5-a]pyridin-7-yl-2-propanesulfonamide or (1S,2R)—N-(4-(2,6-dimethoxyphenyl)-5-(5-methyl-2-furanyl)-4H-1,2,4-triazol-3-yl)-1-hydroxy-1-pyrazolo[1,5-a]pyridin-7-yl-2-propanesulfonamide], COc1cccc(OC)c1-n1c(NS(=O)(=O)C[C@@](C)(F)c2ncc(C#N)cn2)nnc1-c1ccc(C)o1 (single isomer, unassigned) [Example 231.0, (2S)-2-(5-Cyano-2-pyrimidinyl)-N-(4-(2,6-dimethoxyphenyl)-5-(5-methyl-2-furanyl)-4H-1,2,4-triazol-3-yl)-2-fluoro-1-propanesulfonamide or (2R)-2-(5-cyano-2-pyrimidinyl)-N-(4-(2,6-dimethoxyphenyl)-5-(5-methyl-2-furanyl)-4H-1,2,4-triazol-3-yl)-2-fluoro-1-propanesulfonamide] is 15-fold lower in EC50: 6.8 nM for the first, 0.44 nM for the second.

CCN(CC)C(=O)c1cc(Cl)cnc1C[C@@H](C)S(=O)(=O)Nc1nnc(-c2ccco2)n1-c1c(OC)cccc1OC (single isomer, unassigned) [Example 21.0, 5-chloro-2-((2R)-2-((4-(2,6-dimethoxyphenyl)-5-(2-furanyl)-4H-1,2,4-triazol-3-yl)sulfamoyl)propyl)-N,N-diethyl-3-pyridinecarboxamide or 5-chloro-2-((2S)-2-((4-(2,6-dimethoxyphenyl)-5-(2-furanyl)-4H-1,2,4-triazol-3-yl)sulfamoyl)propyl)-N,N-diethyl-3-pyridinecarboxamide] was tested, and the EC50 was 0.31 nM.
